Assay results reported in patent US9301987B2, “Anti-adipogenic compositions containing Piper betle and Dolichos biflorus” (LAILA NUTRACEUTICALS, priority 2007, dated 2016).

Legend:
[1] = system: diet induced obesity in rats; test: Protective effect against diet induced obesity in rats (treatment simultaneous with high fat diet); type: in vivo, Sprague-Dawley rats; settings: 7 mg/kg per day oral, 8 weeks, vs untreated control group
Experimental: Selected healthy Sprague-Dawley rats were randomly assigned to control or various treatment groups (n=6). All the animals allocated for protective phase of the study were on dietary intervention by feeding high fat diet ad libitum and the animals allocated to treatment groups were simultaneously given oral administration of 250 mg/kg Piper betle hydroalcohol extract per day in 10 mL of 0.5% CMC, using gastric tube for the entire 8 week study duration. The test animals of the control group were simultaneously given 10 ml/kg 0.5% CMC. The animals of positive control group were given 7 mg/kg sibutramine in 10 mL of 0.5% CMC. Food and water consumptions were recorded daily, body weights were recorded weekly and fasting blood samples were collected before initiation, after 4th week and 8th week (termination) of the study. […] Upon administration of Piper betle alcohol extract for a period of 60 days, the level of triglyceride in the obese rats was reduced by 33%. The levels of serum cholesterol and LDL were reduced by 22% and 23% respectively, whereas the level of HDL was increased by 11%.
Selected healthy Sprague-Dawley rats were randomly assigned to control or various treatment groups (n=6). […] Food and water consumption were recorded daily, body weights were recorded weekly and fasting blood samples were collected before initiation, after 4th week and 8th week (termination) of the study. […]

[2] = system: diet induced obese rats; test: Anti-obese activity in diet induced obese rats (treatment after 8 weeks high fat diet); type: in vivo, Sprague-Dawley rats; settings: 7 mg/kg per day oral, vs untreated control group
Experimental: Selected healthy Sprague-Dawley rats were randomly assigned for control or various treatment groups (n=6). All the animals allocated for the study were made obese through dietary intervention by feeding high fat diet ad libitum for 8 weeks. After 8 weeks, the treatment group of animals was given oral administration of 250 mg/kg of Piper betle 60% methanol extract per day in 10 mL of 0.5% CMC, using gastric tube for 8 week study duration. The control group of animals was given 10 ml/kg of 0.5% CMC. The animals of positive control group were given 7 mg/kg sibutramine per day in 10 mL of 0.5% CMC. Food and water consumptions were recorded daily, body weights were recorded weekly and fasting blood samples were collected before initiation, after 4th week and 8th week (termination) of the study.
Selected healthy Sprague-Dawley rats were randomly assigned to control or various treatment groups (n=6). All the animals allocated for the study were made obese through dietary intervention by feeding high fat diet ad libitum for 8 weeks. […] Food and water consumption were recorded daily, body weights were recorded weekly and fasting blood samples were collected before initiation, after 4th week and 8th week (termination) of the study.

Structure (SMILES): CC(C)CC(N(C)C)C1(c2ccc(Cl)cc2)CCC1 (centres unmarked) [sibutramine]
- reduction (protection) in weight gain [1]: 44.4%
- reduction in mean body weight gain [2]: ~87%
